Measured values reported in PMC4640066 (Nature Communications, 2015).

Tests used:
γ-TuSC = molecular target: T1, γ-TuSC (Saccharomyces cerevisiae, UniProt P53378); assay: γ-TuSC-stimulated MT polymerization in vitro; type: biochemical; settings: same concentration as ineffective on glutamate, paclitaxel and Tau-induced MT formation
T1 construct: made in house; host or cells: HighFive insect cells
T1 sequence (P53378 1-473): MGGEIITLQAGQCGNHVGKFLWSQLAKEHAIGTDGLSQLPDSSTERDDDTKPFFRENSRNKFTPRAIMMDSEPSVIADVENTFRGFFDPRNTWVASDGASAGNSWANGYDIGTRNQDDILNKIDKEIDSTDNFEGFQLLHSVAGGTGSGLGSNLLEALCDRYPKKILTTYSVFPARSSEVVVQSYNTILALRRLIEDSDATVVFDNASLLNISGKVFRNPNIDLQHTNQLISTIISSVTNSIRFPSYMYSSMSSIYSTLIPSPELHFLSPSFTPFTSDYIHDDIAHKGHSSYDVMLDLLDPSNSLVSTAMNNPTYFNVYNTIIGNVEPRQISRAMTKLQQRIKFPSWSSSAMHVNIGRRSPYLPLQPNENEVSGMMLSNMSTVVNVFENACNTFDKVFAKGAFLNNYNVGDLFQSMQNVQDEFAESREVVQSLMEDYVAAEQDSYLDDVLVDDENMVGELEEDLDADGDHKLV
T1 sequence (P38863 1-823 partner): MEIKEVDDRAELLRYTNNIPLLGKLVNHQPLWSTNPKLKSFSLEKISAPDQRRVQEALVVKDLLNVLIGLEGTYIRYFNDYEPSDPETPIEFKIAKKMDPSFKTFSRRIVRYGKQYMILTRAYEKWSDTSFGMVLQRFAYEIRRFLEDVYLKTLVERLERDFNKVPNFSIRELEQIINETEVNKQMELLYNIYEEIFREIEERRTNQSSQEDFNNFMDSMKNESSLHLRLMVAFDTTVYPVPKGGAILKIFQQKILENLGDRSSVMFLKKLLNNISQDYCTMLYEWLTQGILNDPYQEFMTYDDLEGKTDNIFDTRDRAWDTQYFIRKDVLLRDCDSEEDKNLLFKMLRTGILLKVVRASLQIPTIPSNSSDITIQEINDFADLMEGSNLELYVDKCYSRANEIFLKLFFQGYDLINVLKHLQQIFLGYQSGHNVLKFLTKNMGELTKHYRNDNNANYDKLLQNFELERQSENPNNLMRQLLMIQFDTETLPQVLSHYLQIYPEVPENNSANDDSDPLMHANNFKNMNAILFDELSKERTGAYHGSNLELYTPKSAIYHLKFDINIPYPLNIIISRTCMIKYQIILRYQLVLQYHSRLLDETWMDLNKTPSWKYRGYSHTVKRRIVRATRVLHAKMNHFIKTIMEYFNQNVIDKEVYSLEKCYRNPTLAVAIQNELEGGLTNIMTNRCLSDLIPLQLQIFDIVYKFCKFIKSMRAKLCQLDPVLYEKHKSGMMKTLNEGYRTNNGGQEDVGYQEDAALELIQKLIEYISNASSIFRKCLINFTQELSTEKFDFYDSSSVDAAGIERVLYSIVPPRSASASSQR
T1 sequence (P53540 1-846 partner): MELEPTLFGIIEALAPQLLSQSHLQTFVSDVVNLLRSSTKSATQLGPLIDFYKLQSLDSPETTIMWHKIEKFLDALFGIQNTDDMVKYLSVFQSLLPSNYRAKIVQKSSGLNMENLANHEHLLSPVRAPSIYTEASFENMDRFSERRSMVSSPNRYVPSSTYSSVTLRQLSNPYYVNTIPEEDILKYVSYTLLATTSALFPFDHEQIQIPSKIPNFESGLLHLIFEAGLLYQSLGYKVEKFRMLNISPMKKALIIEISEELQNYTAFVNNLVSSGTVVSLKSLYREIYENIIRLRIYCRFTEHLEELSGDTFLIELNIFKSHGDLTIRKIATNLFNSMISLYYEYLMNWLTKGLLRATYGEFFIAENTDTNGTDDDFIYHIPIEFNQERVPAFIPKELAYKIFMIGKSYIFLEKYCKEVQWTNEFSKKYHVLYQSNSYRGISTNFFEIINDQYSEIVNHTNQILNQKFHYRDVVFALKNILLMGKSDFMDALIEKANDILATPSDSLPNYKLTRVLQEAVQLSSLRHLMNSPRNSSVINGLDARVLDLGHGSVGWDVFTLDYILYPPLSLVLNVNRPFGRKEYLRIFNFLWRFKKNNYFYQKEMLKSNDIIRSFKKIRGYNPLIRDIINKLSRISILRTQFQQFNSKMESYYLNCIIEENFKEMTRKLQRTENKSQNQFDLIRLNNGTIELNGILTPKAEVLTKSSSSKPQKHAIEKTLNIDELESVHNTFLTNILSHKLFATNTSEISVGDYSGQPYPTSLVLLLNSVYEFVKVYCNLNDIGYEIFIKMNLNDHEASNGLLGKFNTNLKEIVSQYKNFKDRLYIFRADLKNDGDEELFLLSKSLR
Experimental: For glutamate-stimulated MT polymerization, 1 mg ml^−1 porcine brain α/β-tubulin was mixed with glutamate (final concentration 1 M) and GTP (final concentration 1 mM) in RB buffer on ice. For paclitaxel-stimulated MT polymerization, 1 mg ml^−1 porcine brain α/β-tubulin was mixed with paclitaxel (final concentration 10 μM) and GTP (final concentration 1 mM) in RB buffer on ice. For recombinant Tau protein-stimulated MT polymerization, 1 mg ml^−1 α/β-tubulin purified from porcine brain and Tau protein were mixed with GTP (final concentration 1 mM) in RB buffer on ice. For γ-TuSC-stimulated MT polymerization, γ-TuSC was mixed with GTP (final concentration 1 mM). One of the compounds and α/β-tubulin were then added. Samples were transferred into cuvettes. Tubulin polymerization was monitored using the absorbance at 350 nm at 37 °C using a thermostatic spectrophotometer (Beckman Coulter).

[1] = system: DMSO-stimulated, γ-tubulin-independent aster formation; assay: DMSO-stimulated aster formation in M-phase Xenopus egg extracts; type: biochemical; settings: M-phase-arrested Xenopus egg extracts, 5% DMSO, 20 min at 20 °C
Experimental: Cytostatic factor (CSF)-arrested M phase Xenopus egg extracts (CSF extracts) were prepared. Briefly, unfertilized eggs were crushed by 10,700g centrifugation for 20 min. M phase extracts were mixed with 0.5 μM Cy3-labelled α/β-tubulin and various concentrations of compounds. After incubation for 30 min on ice, 15 μM RanQ69L, 200 sperm nuclei per μl or 5% DMSO were added and incubated for 30 min on ice. After incubation for 20 min at 20 °C (for the samples with sperm nuclei, the incubation time was 30 min), 1.5 μl sample was fixed with 1.5 μl fix solution (0.3 volume of 37% formaldehyde, 0.6 volume of 80% glycerol and 0.1 vol of 10 × MMR solution (50 mM HEPES, pH 7.8, 1 M NaCl, 20 mM KCl, 10 mM MgCl2, 20 mM CaCl2 and 1 mM EDTA)), followed by the squash fix.
Images were acquired using a microscope (Axiovert 200 M; Carl Zeiss Inc.) equipped with a plan-Apochromat × 63 NA 1.3 oil objective lens (Carl Zeiss Inc.), a Cy3 emission filter and a Cascade:1 K (Photometrics Inc.) camera, and the AxioVision software (Carl Zeiss Inc.). The aster size and fluorescence intensity were quantified using a macro written in MATLAB[41].

COc1cc2c(=O)c(-c3cc(OC)c4c(c3OC)OCO4)coc2cc1OCc1ccccc1 [Gatastatin, O^7-demethylbenzyl AG1]
Effect on γ-TuSC-stimulated MT polymerization (γ-TuSC): blocked γ-TuSC-stimulated MT polymerization | IC50 [1]: > 100 µM
